Measurements taken from patent US9156829B2, “Cycloalkyl and heterocycloalkyl compounds as orexin receptor antagonists” (Takeda Pharmaceutical Company Limited, priority 2014, dated 2015).

Columns and labels:
[1] = biological target: human orexin receptor 2 (Homo sapiens (Human), UniProt O43614); test: Orexin antagonist activity, intracellular calcium FLIPR assay, RBL-2H3 cells expressing human orexin receptor 2; assay type: cell-based; conditions: RBL-2H3 cells stably expressing human orexin receptor 2; orexin-A at approx. 80% maximal response; compound added 15 minutes before; read-out: Human Orexin2R IC50
Chain of human orexin receptor 2 (O43614 whole entry): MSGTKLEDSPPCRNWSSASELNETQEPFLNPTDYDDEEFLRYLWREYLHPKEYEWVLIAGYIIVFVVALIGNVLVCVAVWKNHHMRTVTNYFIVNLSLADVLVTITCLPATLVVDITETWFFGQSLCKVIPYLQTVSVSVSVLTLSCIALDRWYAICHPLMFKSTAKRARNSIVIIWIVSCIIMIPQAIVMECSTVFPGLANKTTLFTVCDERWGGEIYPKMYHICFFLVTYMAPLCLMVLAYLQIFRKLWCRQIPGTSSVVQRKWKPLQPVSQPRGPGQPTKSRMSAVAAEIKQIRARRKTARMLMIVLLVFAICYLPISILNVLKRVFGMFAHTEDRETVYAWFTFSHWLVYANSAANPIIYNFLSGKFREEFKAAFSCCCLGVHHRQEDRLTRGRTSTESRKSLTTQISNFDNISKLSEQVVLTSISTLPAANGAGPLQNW

[2] = biological target: human orexin receptor 1 (Homo sapiens (Human), UniProt O43613); test: Orexin antagonist activity, intracellular calcium FLIPR assay, RBL-2H3 cells expressing human orexin receptor 1; assay type: cell-based; conditions: RBL-2H3 cells stably expressing human orexin receptor 1; orexin-A at approx. 80% maximal response; compound added 15 minutes before; read-out: Human Orexin1R IC50
Chain of human orexin receptor 1 (O43613 whole entry): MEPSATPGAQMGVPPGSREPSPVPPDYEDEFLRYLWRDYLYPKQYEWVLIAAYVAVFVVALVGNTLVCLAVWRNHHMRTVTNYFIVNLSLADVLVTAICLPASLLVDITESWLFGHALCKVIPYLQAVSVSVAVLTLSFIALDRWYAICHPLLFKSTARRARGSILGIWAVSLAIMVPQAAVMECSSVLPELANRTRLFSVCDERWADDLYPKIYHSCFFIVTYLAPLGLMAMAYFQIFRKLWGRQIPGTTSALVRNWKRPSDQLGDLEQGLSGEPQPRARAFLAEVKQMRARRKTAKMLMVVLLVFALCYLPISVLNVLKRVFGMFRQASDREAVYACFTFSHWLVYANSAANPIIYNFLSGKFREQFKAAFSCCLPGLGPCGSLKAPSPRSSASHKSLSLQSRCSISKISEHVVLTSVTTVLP

| IC50 [1] | IC50 [2] | Compound |
| --- | --- | --- |
| > 10 µM | 35 nM | O=C(N[C@H]1CCC[C@@H]1Nc1cnc(C(F)(F)F)cn1)c1c(Cl)cccc1-n1nccn1 [Example 40, 2-Chloro-6-(2H-1,2,3-triazol-2-yl)-N-[(1S,2S)-2-{[5-(trifluoromethyl)pyrazin-2-yl]amino}cyclopentyl]benzamide] |
| > 10 µM | 29 nM | CCc1nc(C(F)(F)F)cnc1N[C@H]1CCC[C@@H]1NC(=O)c1ccccc1-c1ncccn1 [Example 151, N-[(1S,2S)-2-{[3-Ethyl-5-(trifluoromethyl)pyrazin-2-yl]amino}cyclopentyl]-2-(pyrimidin-2-yl)benzamide] |
| > 10 µM | 240 nM | COc1cccc(OC)c1C(=O)N[C@H]1CCC[C@@H]1Nc1ccc(C(F)(F)F)cn1 [Example 1, 2,6-Dimethoxy-N-[(1S,2S)-2-{[5-(trifluoromethyl)pyridin-2-yl]amino}cyclopentyl]benzamide] |
| > 10 µM | 29 nM | O=C(N[C@H]1CCC[C@@H]1Nc1ncc(C(F)(F)F)cc1Cl)c1ccccc1-n1nccn1 [Example 106, N-[(1S,2S)-2-{[3-Chloro-5-(trifluoromethyl)pyridin-2-yl]amino}cyclopentyl]-2-(2H-1,2,3-triazol-2-yl)benzamide] |
| 7.8 µM | 22 nM | COc1cc(Br)cnc1N[C@H]1CCC[C@@H]1NC(=O)c1ccccc1-n1nccn1 [Example 119, N-[(1S,2S)-2-[(5-Bromo-3-methoxypyridin-2-yl)amino]cyclopentyl]-2-(2H-1,2,3-triazol-2-yl)benzamide] |
| > 10 µM | 53 nM | O=C(N[C@H]1CCC[C@@H]1Nc1cnc(C(F)(F)F)cn1)c1ccccc1-n1nccn1 [Example 17, 2-(2H-1,2,3-Triazol-2-yl)-N-[(1S,2S)-2-{[5-(trifluoromethyl)pyrazin-2-yl]amino}cyclopentyl]benzamide] |
| > 10 µM | 62 nM | Cc1noc(-c2ccccc2C(=O)N[C@H]2CCC[C@@H]2Nc2ncc(C(F)(F)F)nc2C)n1 [Example 141, 2-(3-Methyl-1,2,4-oxadiazol-5-yl)-N-[(1S,2S)-2-{[3-methyl-5-(trifluoromethyl)pyrazin-2-yl]amino}cyclopentyl]benzamide] |
| > 10 µM | 236 nM | O=C(N[C@H]1CC(F)(F)C[C@@H]1Nc1ccc(OC(F)F)cn1)c1ccccc1-n1nccn1 [Example 157, N-[(1S,2S)-2-{[5-(Difluoromethoxy)pyridin-2-yl]amino}-4,4-difluorocyclopentyl]-2-(2H-1,2,3-triazol-2-yl)benzamide] |
| > 10 µM | 776 nM | O=C(N[C@H]1CCC[C@@H]1Nc1cnc(C(F)(F)F)cn1)c1ncccc1Br [Example 28, 3-Bromo-N-[(1S,2S)-2-{[5-(trifluoromethyl)pyrazin-2-yl]amino}cyclopentyl]pyridine-2-carboxamide] |
| > 10 µM | 34 nM | Cc1cc(C(F)(F)F)cnc1N[C@H]1CCC[C@@H]1NC(=O)c1ncccc1-c1ncccn1 [Example 137, N-[(1S,2S)-2-{[3-Methyl-5-(trifluoromethyl)pyridin-2-yl]amino}cyclopentyl]-3-(pyrimidin-2-yl)pyridine-2-carboxamide] |
| > 10 µM | 170 nM | O=C(N[C@H]1CCC[C@@H]1Nc1ccc(C(F)(F)F)cn1)c1ccccc1-n1cccn1 [Example 11, 2-(1H-Pyrazol-1-yl)-N-[(1S,2S)-2-{[5-(trifluoromethyl)pyridin-2-yl]amino}cyclopentyl]benzamide] |
| > 10 µM | 622 nM | Cc1ccc(-n2nccn2)c(C(=O)NC2CCCC2Cc2ccc(C(F)(F)F)cn2)c1 (centres unmarked) [Example 26, 5-Methyl-2-(2H-1,2,3-triazol-2-yl)-N-(2-{[5-(trifluoromethyl)pyridin-2-yl]methyl}cyclopentyl)benzamide] |
| > 10 µM | 21 nM | Cc1cc(C(F)(F)F)cnc1N[C@H]1CCC[C@@H]1NC(=O)c1ncccc1-n1nccn1 [Example 124, N-[(1S,2S)-2-{[3-Methyl-5-(trifluoromethyl)pyridin-2-yl]amino}cyclopentyl]-3-(2H-1,2,3-triazol-2-yl)pyridine-2-carboxamide] |
| > 10 µM | 99 nM | O=C(N[C@H]1CCC[C@@H]1Nc1ccc(C(F)(F)F)cn1)c1ccccc1-c1ncccn1 [Example 13, 2-(Pyrimidin-2-yl)-N-[(1S,2S)-2-{[5-(trifluoromethyl)pyridin-2-yl]amino}cyclopentyl]benzamide] |
| > 10 µM | 11 nM | Cc1noc(-c2ccccc2C(=O)N[C@H]2CCC[C@]2(C)Nc2cnc(C(F)(F)F)cn2)n1 [Example 145, 2-(3-Methyl-1,2,4-oxadiazol-5-yl)-N-[(1S,2S)-2-methyl-2-{[5-(trifluoromethyl)pyrazin-2-yl]amino}cyclopentyl]benzamide] |
| > 10 µM | 161 nM | O=C(N[C@H]1CCC[C@@H]1Nc1cnc(C(F)(F)F)cn1)c1cc(Cl)ccc1-n1cccn1 [Example 59, 5-Chloro-2-(1H-pyrazol-1-yl)-N-[(1S,2S)-2-{[5-(trifluoromethyl)pyrazin-2-yl]amino}cyclopentyl]benzamide] |

| IC50 [1] | IC50 [2] | Compound |
| --- | --- | --- |
| > 10 µM | 301 nM | O=C(N[C@H]1CCC[C@@H]1Nc1cnc(C(F)(F)F)cn1)c1ncccc1N1CCCCC1 [Example 51, 3-(Piperidin-1-yl)-N-[(1S,2S)-2-{[5-(trifluoromethyl)pyrazin-2-yl]amino}cyclopentyl]pyridine-2-carboxamide] |
| > 10 µM | 8 nM | C[C@]1(Nc2cnc(C(F)(F)F)cn2)CCC[C@@H]1NC(=O)c1c(Cl)cccc1-n1nccn1 [Example 87, 2-Chloro-N-[(1S,2S)-2-methyl-2-{[5-(trifluoromethyl)pyrazin-2-yl]amino}cyclopentyl]-6-(2H-1,2,3-triazol-2-yl)benzamide] |
| > 10 µM | 35 nM | Cc1nc(C(F)(F)F)cnc1N[C@H]1CCC[C@@H]1NC(=O)c1ccccc1-c1ncccn1 [Example 79, N-[(1S,2S)-2-{[3-Methyl-5-(trifluoromethyl)pyrazin-2-yl]amino}cyclopentyl]-2-(pyrimidin-2-yl)benzamide] |
| > 10 µM | 644 nM | O=C(N[C@H]1CCC[C@@H]1Nc1cnc(C(F)(F)F)cn1)c1cc(F)ccc1-n1ccnn1 [Example 41, 5-Fluoro-2-(1H-1,2,3-triazol-1-yl)-N-[(1S,2S)-2-{[5-(trifluoromethyl)pyrazin-2-yl]amino}cyclopentyl]benzamide] |
| > 10 µM | 308 nM | CN(c1cnc(C(F)(F)F)cn1)[C@H]1CCC[C@@H]1NC(=O)c1cc(F)ccc1-n1nccn1 [Example 74, 5-Fluoro-N-[(1S,2S)-2-{methyl[5-(trifluoromethyl)pyrazin-2-yl]amino}cyclopentyl]-2-(2H-1,2,3-triazol-2-yl)benzamide] |
| > 10 µM | 14 nM | CCc1nc(C(F)(F)F)cnc1N[C@H]1CCC[C@@H]1NC(=O)c1ncccc1-n1nccn1 [Example 125, N-[(1S,2S)-2-{[3-Ethyl-5-(trifluoromethyl)pyrazin-2-yl]amino}cyclopentyl]-3-(2H-1,2,3-triazol-2-yl)pyridine-2-carboxamide] |
| > 10 µM | 172 nM | O=C(N[C@H]1CCC[C@@H]1Nc1cnc(C(F)(F)F)cn1)c1c(F)cccc1-n1cccn1 [Example 46, 2-Fluoro-6-(1H-pyrazol-1-yl)-N-[(1S,2S)-2-{[5-(trifluoromethyl)pyrazin-2-yl]amino}cyclopentyl]benzamide] |
| > 10 µM | 32 nM | O=C(N[C@H]1CCC[C@@H]1Nc1ncc(C(F)(F)F)cc1Cl)c1ncccc1-n1nccn1 [Example 122, N-[(1S,2S)-2-{[3-Chloro-5-(trifluoromethyl)pyridin-2-yl]amino}cyclopentyl]-3-(2H-1,2,3-triazol-2-yl)pyridine-2-carboxamide] |
| > 10 µM | 59 nM | O=C(N[C@H]1CCC[C@@H]1Nc1ccc(C(F)(F)F)cn1)c1cc(F)ccc1-n1nccn1 [Example 10, 5-Fluoro-2-(2H-1,2,3-triazol-2-yl)-N-[(1S,2S)-2-{[5-(trifluoromethyl)pyridin-2-yl]amino}cyclopentyl]benzamide] |
| 3.8 µM | 792 nM | O=C(NC1CCCC1Cc1cc(C(F)(F)F)ccn1)c1ccccc1-n1nccn1 (single isomer, unassigned) [Example 23, 2-(2H-1,2,3-Triazol-2-yl)-N-(2-{[4-(trifluoromethyl)pyridin-2-yl]methyl}cyclopentyl)benzamide] |
| > 10 µM | 129 nM | CCOc1cccnc1C(=O)N[C@H]1CCC[C@]1(C)Nc1cnc(C(F)(F)F)cn1 [Example 86, 3-Ethoxy-N-[(1S,2S)-2-methyl-2-{[5-(trifluoromethyl)pyrazin-2-yl]amino}cyclopentyl]pyridine-2-carboxamide] |
| > 10 µM | 19 nM | Cc1nc(C(F)(F)F)cnc1N[C@H]1CCC[C@@H]1NC(=O)c1ccccc1-n1nccn1 [Example 78, N-[(1S,2S)-2-{[3-Methyl-5-(trifluoromethyl)pyrazin-2-yl]amino}cyclopentyl]-2-(2H-1,2,3-triazol-2-yl)benzamide] |
| > 10 µM | 875 nM | O=C(N[C@H]1CCC[C@@H]1Oc1cc(C(F)(F)F)ccn1)c1ccccc1-n1nccn1 [Example 20, 2-(2H-1,2,3-Triazol-2-yl)-N-[(1S,2S)-2-{[4-(trifluoromethyl)pyridin-2-yl]oxy}cyclopentyl]benzamide] |
| > 10 µM | 6 nM | C[C@]1(Nc2cnc(C(F)(F)F)cn2)CCC[C@@H]1NC(=O)c1ccccc1-c1ncccn1 [Example 91, N-[(1S,2S)-2-Methyl-2-{[5-(trifluoromethyl)pyrazin-2-yl]amino}cyclopentyl]-2-(pyrimidin-2-yl)benzamide] |
| 6.11 µM | 757 nM | O=C(N[C@H]1CCC[C@H]1Oc1cnc(C(F)(F)F)cn1)c1ccccc1-n1nccn1 [Example 19, 2-(2H-1,2,3-Triazol-2-yl)-N-[(1S,2R)-2-{[5-(trifluoromethyl)pyrazin-2-yl]oxy}cyclopentyl]benzamide] |
